From patent US20120284809A1, “KNOCK DOWN MODEL OF DICKKOPF HOMOLOGUE 3 (Dkk3) FOR ASSESSING ROLE OF SAID Dkk3 IN SPERMATOGENESIS AND SEX REVERSAL” (National Institute of Immunology, priority 2011, published 2012)

Tested on: spermatogenesis in Dkk3 knock down model
Assay: Testosterone replacement in Dkk3 knock down model
Type: in vivo, non human vertebrate
Conditions: 5 mg intramuscularly
Protocol: Serum testosterone concentrations from the Dkk3 knock down model and wild-type can be assessed at 10 weeks of age. Blood can be obtained through retro orbital bleeding before sacrificing the model. Serum testosterone can be assayed using a modified testosterone immunoassay (RIA) system in triplicate. […] For testosterone replacement, Dkk3 knock down model can be injected intramuscularly with 5 mg of testosterone undecanoate. Controls may be injected with castor oil. Blood can be taken after one month of the injection and serum testosterone levels may be measured.

## CCCCCCCCCCC(=O)O[C@H]1CC[C@H]2[C@@H]3CCC4=CC(=O)CC[C@]4(C)[C@H]3CC[C@]12C [testosterone undecanoate]
Not up to wild type control levels
  Sperm counts vs Dkk3 knock down model: marginal increase
One month
  degree of spermatogenesis tubule disruption (histology) vs castor oil treated controls: did not showed any improvement
